Each structure is given as a SMILES string.

This experiment concerns MV-4-11 cells. Description: Gene expression microarray analysis (Affymetrix PrimeView) and GSEA. Further details: RFU PODN (11730768_x_at) / Fold change /veh PODN (11730768_x_at) / RFU LINC00158 (11744669_a_at) / Fold change /veh LINC00158 (11744669_a_at) / RFU DUSP10 (11751237_a_at) / Fold change /veh DUSP10 (11751237_a_at) / RFU ID3 (11757404_x_at) / Fold change /veh ID3 (11757404_x_at) / RFU PLEKHG5 (11737974_s_at) / Fold change /veh PLEKHG5 (11737974_s_at) / RFU LRRC4B (11730491_at) / Fold change /veh LRRC4B (11730491_at) / RFU GIMAP4 (11747438_a_at) / Fold change /veh GIMAP4 (11747438_a_at) / RFU KRT8 (11758183_x_at) / Fold change /veh KRT8 (11758183_x_at) / RFU CNN1 (11734310_a_at) / Fold change /veh CNN1 (11734310_a_at) / RFU VPS37D (11726825_at) / Fold change /veh VPS37D (11726825_at) / RFU C10orf10 (11716522_x_at) / Fold change /veh C10orf10 (11716522_x_at) / RFU KIR2DL2 /// KIR2DL4 /// KIR2DL5A /// KIR2DL5B /// KIR2DS1 /// KIR2DS2 /// KIR2DS3 /// KIR2DS4 /// KIR3DL3 /// KIR3DL3 /// KIR3DS1 (11738374_at) / Fold change /veh KIR2DL2 /// KIR2DL4 /// KIR2DL5A /// KIR2DL5B /// KIR2DS1 /// KIR2DS2 /// KIR2DS3 /// KIR2DS4 /// KIR3DL3 /// KIR3DL3 /// KIR3DS1 (11738374_at) / RFU C1QL1 (11718748_at) / Fold change /veh C1QL1 (11718748_at) / RFU TMPRSS4 (11747572_a_at) / Fold change /veh TMPRSS4 (11747572_a_at) / RFU HAMP (11756126_x_at) / Fold change /veh HAMP (11756126_x_at) / RFU RNFT2 (11725882_a_at) / Fold change /veh RNFT2 (11725882_a_at) / RFU NR4A2 (11747474_a_at) / Fold change /veh NR4A2 (11747474_a_at) / RFU ABCC12 (11746883_a_at) / Fold change /veh ABCC12 (11746883_a_at) / RFU TMEM136 (11760407_x_at) / Fold change /veh TMEM136 (11760407_x_at) / RFU CLDN22 /// WWC2 (11732394_at) / Fold change /veh CLDN22 /// WWC2 (11732394_at) / RFU HLA-DPB1 (11760878_x_at) / Fold change /veh HLA-DPB1 (11760878_x_at) / RFU SPINT1 (11716480_a_at) / Fold change /veh SPINT1 (11716480_a_at) / RFU GAP43 (11754022_s_at) / Fold change /veh GAP43 (11754022_s_at) / RFU A4GNT (11735810_at) / Fold change /veh A4GNT (11735810_at) / RFU PRB3 (11715151_x_at) / Fold change /veh PRB3 (11715151_x_at) / RFU TUBB4B (11761932_at) / Fold change /veh TUBB4B (11761932_at) / RFU CAPN14 (11732068_a_at) / Fold change /veh CAPN14 (11732068_a_at) / RFU TMCC2 (11721928_a_at) / Fold change /veh TMCC2 (11721928_a_at) / RFU IRGQ (11745062_a_at) / Fold change /veh IRGQ (11745062_a_at) / RFU FAM174B (11720279_a_at) / Fold change /veh FAM174B (11720279_a_at) / RFU TMPRSS4 (11748680_a_at) / Fold change /veh TMPRSS4 (11748680_a_at) / RFU FAM212B (11763350_a_at) / Fold change /veh FAM212B (11763350_a_at) / RFU PLEKHG5 (11743358_a_at) / Fold change /veh PLEKHG5 (11743358_a_at) / RFU ZSCAN30 (11745921_a_at) / Fold change /veh ZSCAN30 (11745921_a_at) / RFU CMKLR1 (11741424_a_at) / Fold change /veh CMKLR1 (11741424_a_at) / RFU LOC101060620 /// MAPK8IP1 (11723275_at) / Fold change /veh LOC101060620 /// MAPK8IP1 (11723275_at) / RFU SPTSSB (11747773_x_at) / Fold change /veh SPTSSB (11747773_x_at) / RFU PRSS12 (11739890_at) / Fold change /veh PRSS12 (11739890_at) / RFU BIN1 (11741810_x_at) / Fold change /veh BIN1 (11741810_x_at) / RFU WNT11 (11732464_a_at) / Fold change /veh WNT11 (11732464_a_at) / RFU C10orf10 (11716521_a_at) / Fold change /veh C10orf10 (11716521_a_at) / RFU C5orf56 (11738089_at) / Fold change /veh C5orf56 (11738089_at) / RFU CYB561 (11721691_x_at) / Fold change /veh CYB561 (11721691_x_at) / RFU ANKRD19P (11752326_a_at) / Fold change /veh ANKRD19P (11752326_a_at) / RFU OR2T12 /// OR2T33 /// OR2T8 (11738714_s_at) / Fold change /veh OR2T12 /// OR2T33 /// OR2T8 (11738714_s_at) / RFU VCAN (11748164_a_at) / Fold change /veh VCAN (11748164_a_at) / RFU JSRP1 (11732532_at) / Fold change /veh JSRP1 (11732532_at) / RFU KRTAP10-11 (11738290_x_at) / Fold change /veh KRTAP10-11 (11738290_x_at) / RFU MYO3A (11730013_a_at) / Fold change /veh MYO3A (11730013_a_at) / RFU EBF3 (11725865_a_at) / Fold change /veh EBF3 (11725865_a_at) / RFU CAMK2N1 (11719241_x_at) / Fold change /veh CAMK2N1 (11719241_x_at) / RFU C5orf56 (11738088_a_at) / Fold change /veh C5orf56 (11738088_a_at) / RFU OLFML3 (11715873_a_at) / Fold change /veh OLFML3 (11715873_a_at) / RFU LOC100653217 /// NTM (11731650_a_at) / Fold change /veh LOC100653217 /// NTM (11731650_a_at) / RFU MAPK11 (11762145_a_at) / Fold change /veh MAPK11 (11762145_a_at) / RFU FIZ1 (11724087_x_at) / Fold change /veh FIZ1 (11724087_x_at) / RFU OASL (11726364_x_at) / Fold change /veh OASL (11726364_x_at) / RFU SOX15 (11748057_x_at) / Fold change /veh SOX15 (11748057_x_at) / RFU CD79A (11719716_a_at) / Fold change /veh CD79A (11719716_a_at) / RFU HIST1H1D (11736915_at) / Fold change /veh HIST1H1D (11736915_at) / RFU CASKIN2 (11723855_a_at) / Fold change /veh CASKIN2 (11723855_a_at) / RFU LOC730098 (11760151_x_at) / Fold change /veh LOC730098 (11760151_x_at) / RFU OR4N2 (11742367_at) / Fold change /veh OR4N2 (11742367_at) / RFU PRRT2 (11749266_a_at) / Fold change /veh PRRT2 (11749266_a_at) / RFU SNX32 (11753110_a_at) / Fold change /veh SNX32 (11753110_a_at) / RFU CDHR5 (11726645_a_at) / Fold change /veh CDHR5 (11726645_a_at) / RFU RCAN1 (11760418_a_at) / Fold change /veh RCAN1 (11760418_a_at) / RFU FAM167A (11723789_a_at) / Fold change /veh FAM167A (11723789_a_at) / RFU FAM26E (11764081_at) / Fold change /veh FAM26E (11764081_at) / RFU ISYNA1 (11749810_s_at) / Fold change /veh ISYNA1 (11749810_s_at) / RFU ACY1 (11761880_at) / Fold change /veh ACY1 (11761880_at) / RFU 11764098_at / Fold change /veh 11764098_at / RFU SAMD14 (11745864_x_at) / Fold change /veh SAMD14 (11745864_x_at) / RFU NPB (11741838_a_at) / Fold change /veh NPB (11741838_a_at) / RFU TMPRSS6 (11731388_a_at) / Fold change /veh TMPRSS6 (11731388_a_at) / RFU KRTAP10-2 (11738614_at) / Fold change /veh KRTAP10-2 (11738614_at) / RFU ARHGAP8 /// PRR5-ARHGAP8 (11727945_x_at) / Fold change /veh ARHGAP8 /// PRR5-ARHGAP8 (11727945_x_at) / RFU KRTAP5-7 /// NADSYN1 (11734609_at) / Fold change /veh KRTAP5-7 /// NADSYN1 (11734609_at) / RFU RASL12 (11751679_a_at) / Fold change /veh RASL12 (11751679_a_at) / RFU CDKN2B (11736163_a_at) / Fold change /veh CDKN2B (11736163_a_at) / RFU PRF1 (11729649_at) / Fold change /veh PRF1 (11729649_at) / RFU, ZNF638 /// ZNF638-IT1 / Fold change vs veh, ZNF638 /// ZNF638-IT1 / RFU, PANK3 / Fold change vs veh, PANK3 / RFU, SH3YL1 / Fold change vs veh, SH3YL1 / RFU, ZEB2 / Fold change vs veh, ZEB2 / RFU, NRIP1 / Fold change vs veh, NRIP1 / RFU, PTTG1IP / Fold change vs veh, PTTG1IP / RFU, CAPN2 / Fold change vs veh, CAPN2 / RFU, MED14 / Fold change vs veh, MED14 / RFU, SNORA58 / Fold change vs veh, SNORA58 / RFU, C1orf63 / Fold change vs veh, C1orf63 / RFU, LRRFIP1 / Fold change vs veh, LRRFIP1 / RFU, NDUFAF7 / Fold change vs veh, NDUFAF7 / RFU, SLC12A2 / Fold change vs veh, SLC12A2 / RFU, IBTK / Fold change vs veh, IBTK / RFU, ESF1 / Fold change vs veh, ESF1 / Fold change vs veh, TMEM50B / RFU, TAOK1 / Fold change vs veh, TAOK1 / RFU, ACBD3 / Fold change vs veh, ACBD3 / RFU, TMA16 / Fold change vs veh, TMA16 / RFU, RWDD3 / Fold change vs veh, RWDD3 / RFU, BCAT1 / Fold change vs veh, BCAT1 / RFU, EDEM3 / Fold change vs veh, EDEM3 / RFU, TMEM33 / Fold change vs veh, TMEM33 / RFU, WDR75 / Fold change vs veh, WDR75 / RFU, AHCTF1 / Fold change vs veh, AHCTF1 / RFU, TFRC / Fold change vs veh, TFRC / RFU, ZDHHC17 / Fold change vs veh, ZDHHC17 / RFU, NOM1 / Fold change vs veh, NOM1 / RFU, ARL8B / Fold change vs veh, ARL8B / RFU, ZBTB11 / Fold change vs veh, ZBTB11 / RFU, TAMM41 / Fold change vs veh, TAMM41 / RFU, KIAA1704 /// LOC100996395 / Fold change vs veh, KIAA1704 /// LOC100996395 / RFU, ING1 / Fold change vs veh, ING1 / RFU, TRMT61B / Fold change vs veh, TRMT61B / RFU, FUBP3 / Fold change vs veh, FUBP3 / RFU, TP53 / Fold change vs veh, TP53 / RFU, TNKS2 / Fold change vs veh, TNKS2 / RFU, ZFP14 / Fold change vs veh, ZFP14 / RFU, ACTR2 / Fold change vs veh, ACTR2 / RFU, PPP3R1 / Fold change vs veh, PPP3R1 / RFU, PIK3R1 / Fold change vs veh, PIK3R1 / RFU, HNRNPA1 / Fold change vs veh, HNRNPA1 / RFU, RNF170 / Fold change vs veh, RNF170 / RFU, ZNF28 / Fold change vs veh, ZNF28 / RFU, RNGTT / Fold change vs veh, RNGTT / RFU, OGT / Fold change vs veh, OGT / RFU, BRD1 / Fold change vs veh, BRD1 / RFU, MARS / Fold change vs veh, MARS / RFU, ZNF655 / Fold change vs veh, ZNF655 / RFU, FAHD1 / Fold change vs veh, FAHD1 / RFU, BDP1 / Fold change vs veh, BDP1 / RFU, LRRCC1 / Fold change vs veh, LRRCC1 / RFU, ARID1A / Fold change vs veh, ARID1A / RFU, ZNF146 / Fold change vs veh, ZNF146 / RFU, ZNF330 / Fold change vs veh, ZNF330 / RFU, GPN3 / Fold change vs veh, GPN3 / RFU, C9orf123 / Fold change vs veh, C9orf123 / RFU, N4BP2L2 / Fold change vs veh, N4BP2L2 / RFU, ARFIP1 / Fold change vs veh, ARFIP1 / RFU, FAM179B / Fold change vs veh, FAM179B / RFU, BCL10 / Fold change vs veh, BCL10 / RFU, UHRF1BP1L / Fold change vs veh, UHRF1BP1L / RFU, BET1 / Fold change vs veh, BET1 / RFU, CNOT2 / Fold change vs veh, CNOT2 / RFU, ZNF268 / Fold change vs veh, ZNF268 / Fold change vs veh, ZNF507 / RFU, DGCR2 / Fold change vs veh, DGCR2 / RFU, WDSUB1 / Fold change vs veh, WDSUB1 / Fold change vs veh, HSP90B1 /// MIR3652 / RFU, ADSS / Fold change vs veh, ADSS / RFU, GK / Fold change vs veh, GK / RFU, ZNF148 / Fold change vs veh, ZNF148 / RFU, TAF9 / Fold change vs veh, TAF9 / RFU, SLC1A5 / Fold change vs veh, SLC1A5 / RFU, SLMO2 / Fold change vs veh, SLMO2 / RFU, ABCC4 / Fold change vs veh, ABCC4 / RFU, LOC101060439 /// RAP1B / Fold change vs veh, LOC101060439 /// RAP1B / RFU, RFX7 / Fold change vs veh, RFX7 / RFU, GTPBP10 / Fold change vs veh, GTPBP10 / RFU, CNEP1R1 / Fold change vs veh, CNEP1R1 / RFU, BIVM-ERCC5 /// ERCC5 / Fold change vs veh, BIVM-ERCC5 /// ERCC5 / RFU, ILF3 / Fold change vs veh, ILF3 / RFU 11762660_at / Fold change /veh 11762660_at / RFU VCAN (11757783_s_at) / Fold change /veh VCAN (11757783_s_at) / RFU DDX43 (11728927_at) / Fold change /veh DDX43 (11728927_at) / RFU KRT8 (11758188_x_at) / Fold change /veh KRT8 (11758188_x_at) / RFU NKD1 (11759106_at) / Fold change /veh NKD1 (11759106_at) / RFU SRD5A1 (11742802_a_at) / Fold change /veh SRD5A1 (11742802_a_at) / RFU TPSAB1 /// TPSB2 (11721975_s_at) / Fold change /veh TPSAB1 /// TPSB2 (11721975_s_at) / RFU GSTM3 (11746129_a_at) / Fold change /veh GSTM3 (11746129_a_at) / RFU IL23R (11737362_x_at) / Fold change /veh IL23R (11737362_x_at) / RFU TMEM51 (11727254_a_at) / Fold change /veh TMEM51 (11727254_a_at) / RFU PIWIL2 (11732686_x_at) / Fold change /veh PIWIL2 (11732686_x_at) / RFU ORM1 (11744905_x_at) / Fold change /veh ORM1 (11744905_x_at) / RFU CCDC152 (11743942_at) / Fold change /veh CCDC152 (11743942_at) / RFU ECM1 (11717891_a_at) / Fold change /veh ECM1 (11717891_a_at) / RFU IL23R (11748794_a_at) / Fold change /veh IL23R (11748794_a_at) / RFU TNFAIP8L3 (11732012_x_at) / Fold change /veh TNFAIP8L3 (11732012_x_at) / RFU MBOAT4 (11741988_at) / Fold change /veh MBOAT4 (11741988_at) / RFU 11764193_at / Fold change /veh 11764193_at / RFU TMEM53 (11763286_at) / Fold change /veh TMEM53 (11763286_at) / RFU MAGEB2 (11727129_at) / Fold change /veh MAGEB2 (11727129_at) / RFU TMEM200A (11744735_a_at) / Fold change /veh TMEM200A (11744735_a_at) / RFU CCDC152 (11751479_a_at) / Fold change /veh CCDC152 (11751479_a_at) / RFU FAM211A (11726209_a_at) / Fold change /veh FAM211A (11726209_a_at) / RFU RGS16 (11746705_a_at) / Fold change /veh RGS16 (11746705_a_at) / RFU VCAN (11755009_s_at) / Fold change /veh VCAN (11755009_s_at) / RFU RHOB (11743442_s_at) / Fold change /veh RHOB (11743442_s_at) / RFU RGS16 (11720943_a_at) / Fold change /veh RGS16 (11720943_a_at) / RFU RGS16 (11720944_at) / Fold change /veh RGS16 (11720944_at) / RFU, VPS4B / Fold change vs veh, VPS4B / RFU, CREB1 / Fold change vs veh, CREB1 / RFU, DNAJC13 / Fold change vs veh, DNAJC13 / RFU, GNAQ / Fold change vs veh, GNAQ / RFU, CDK5R1 / Fold change vs veh, CDK5R1 / RFU, ZRANB3 / Fold change vs veh, ZRANB3 / RFU, CUL4A / Fold change vs veh, CUL4A / RFU, CCNY / Fold change vs veh, CCNY / RFU, UFL1 / Fold change vs veh, UFL1 / RFU, COG3 / Fold change vs veh, COG3 / RFU, DIAPH2 / Fold change vs veh, DIAPH2 / RFU, SKA2 / Fold change vs veh, SKA2 / RFU, AFF3 / Fold change vs veh, AFF3 / RFU, LMF1 / Fold change vs veh, LMF1 / RFU, IPO11 / Fold change vs veh, IPO11 / RFU, DFFB / Fold change vs veh, DFFB / RFU, FOXP1 / Fold change vs veh, FOXP1 / RFU, CARD8 / Fold change vs veh, CARD8 / RFU, STRN3 / Fold change vs veh, STRN3 / RFU, ADK / Fold change vs veh, ADK / RFU, RASSF2 / Fold change vs veh, RASSF2 / RFU, WIPF1 / Fold change vs veh, WIPF1 / RFU, LARP1B / Fold change vs veh, LARP1B / RFU, RASA1 / Fold change vs veh, RASA1 / RFU, RB1 / Fold change vs veh, RB1 / RFU, PPFIA1 / Fold change vs veh, PPFIA1 / RFU, MAT2A / Fold change vs veh, MAT2A / RFU, CCT5 / Fold change vs veh, CCT5 / RFU, WDR92 / Fold change vs veh, WDR92 / RFU, CUX1 / Fold change vs veh, CUX1 / RFU, TTC7A / Fold change vs veh, TTC7A / RFU, TMEM135 / Fold change vs veh, TMEM135 / RFU, DEPTOR / Fold change vs veh, DEPTOR / RFU, CPM / Fold change vs veh, CPM / RFU, DNAJB6 / Fold change vs veh, DNAJB6 / RFU, CACNA2D3 / Fold change vs veh, CACNA2D3 / RFU, DTX4 / Fold change vs veh, DTX4 / RFU, TFCP2 / Fold change vs veh, TFCP2 / RFU, GMCL1 /// GMCL1P1 / Fold change vs veh, GMCL1 /// GMCL1P1 / RFU, AEBP2 / Fold change vs veh, AEBP2 / RFU, SNHG1 /// SNORD22 /// SNORD25 /// SNORD26 /// SNORD27 /// SNORD28 /// SNORD29 /// SNORD31 / Fold change vs veh, SNHG1 /// SNORD22 /// SNORD25 /// SNORD26 /// SNORD27 /// SNORD28 /// SNORD29 /// SNORD31 / Fold change (Aza/veh), C12orf56 (ProbeSet 11735607_a_at) / Fold change (ACY-1035/veh), C12orf56 (ProbeSet 11735607_a_at) / Fold change (Aza/veh), FGFR1OP (ProbeSet 11751329_s_at) / Fold change (ACY-1035/veh), FGFR1OP (ProbeSet 11751329_s_at) / Fold change (Aza/veh), VPS36 (ProbeSet 11739960_a_at) / Fold change (ACY-1035/veh), VPS36 (ProbeSet 11739960_a_at) / RFU SYPL1 (11715823_x_at) / Fold change /veh SYPL1 (11715823_x_at) / RFU IGFBP7 (11715501_s_at) / Fold change /veh IGFBP7 (11715501_s_at) / RFU REEP3 (11722064_at) / Fold change /veh REEP3 (11722064_at) / RFU IGLL1 (11728026_x_at) / Fold change /veh IGLL1 (11728026_x_at): dose or concentration left out as unconfirmed. To be noted: MV-4-11 cells, 48 hours. The class given is cell-based, human.

As to `Nc1ccc(-c2cccs2)cc1NC(=O)c1ccc2c(c1)cc(C1CC1)n2CCN1CCOCC1` [ACY-1035], the “RFU IL23R (11748794_a_at)” value was determined as 5.77 RFU.

(Values after publication PMC5218480 (PLoS ONE, 2017).)
